Patent US20140323300A1, “HERBICIDAL COMPOUNDS” (SYNGENTA LIMITED, priority 2011, published 2014)

How the values were obtained:
Format in all cases: in vivo
[1] = test system: Alopecurus myosuroides (ALOMY); test: Post-emergence glasshouse herbicide test; conditions: post-emergence (sprayed after 8 days cultivation), 1000 g/h, evaluated after 13 days, five point scale
Method: (§1) Seeds of a variety of test species are sown in standard soil in pots (Alopecurus myosuroides (ALOMY), Setaria faberi (SETFA), Echinochloa crus-galli (ECHCG), Solanum nigrum (SOLNI), Amaranthus retoflexus (AMARE), Ipomoea hederacea (IPOHE)). After cultivation for one day (pre-emergence) or after 8 days cultivation (post-emergence) under controlled conditions in a glasshouse (at 24/16° C., day/night; 14 hours light; 65% humidity), the plants are sprayed with an aqueous spray solution derived from the formulation of the technical active ingredient in acetone/water (50:50) solution containing 0.5% Tween 20 (polyoxyethelyene sorbitan monolaurate, CAS RN 9005-64-5). Compounds are applied at 1000 g/h. The test plants are then grown in a glasshouse under controlled conditions in a glasshouse (at 24/16° C., day/night; 14 hours light; 65% humidity) and watered twice daily. After 13 days for pre and post-emergence, the test is evaluated for the percentage damage caused to the plant. The biological activities are shown in the following table on a five point scale (5=80-100%; 4=60-79%; 3=40-59%; 2=20-39%; 1=0-19%).

[2] = test system: Amaranthus retoflexus (AMARE); test: Post-emergence glasshouse herbicide test; conditions: post-emergence (sprayed after 8 days cultivation), 1000 g/h, evaluated after 13 days, five point scale
Method: as §1

[3] = test system: Echinochloa crus-galli (ECHCG); test: Post-emergence glasshouse herbicide test; conditions: post-emergence (sprayed after 8 days cultivation), 1000 g/h, evaluated after 13 days, five point scale
Method: as §1

[4] = test system: Ipomoea hederacea (IPOHE); test: Post-emergence glasshouse herbicide test; conditions: post-emergence (sprayed after 8 days cultivation), 1000 g/h, evaluated after 13 days, five point scale
Method: as §1

Setaria faberi (SETFA) [5] = test: Post-emergence glasshouse herbicide test; conditions: post-emergence (sprayed after 8 days cultivation), 1000 g/h, evaluated after 13 days, five point scale
Method: as §1

Solanum nigrum (SOLNI) [6] = test: Post-emergence glasshouse herbicide test; conditions: post-emergence (sprayed after 8 days cultivation), 1000 g/h, evaluated after 13 days, five point scale
Method: as §1

[7] = test system: Alopecurus myosuroides (ALOMY); test: Pre-emergence glasshouse herbicide test; conditions: pre-emergence (sprayed after one day cultivation), 1000 g/h, evaluated after 13 days, five point scale
Method: as §1

[8] = test system: Amaranthus retoflexus (AMARE); test: Pre-emergence glasshouse herbicide test; conditions: pre-emergence (sprayed after one day cultivation), 1000 g/h, evaluated after 13 days, five point scale
Method: as §1

[9] = test system: Echinochloa crus-galli (ECHCG); test: Pre-emergence glasshouse herbicide test; conditions: pre-emergence (sprayed after one day cultivation), 1000 g/h, evaluated after 13 days, five point scale
Method: as §1

[10] = test system: Ipomoea hederacea (IPOHE); test: Pre-emergence glasshouse herbicide test; conditions: pre-emergence (sprayed after one day cultivation), 1000 g/h, evaluated after 13 days, five point scale
Method: as §1

Setaria faberi (SETFA) [11] = test: Pre-emergence glasshouse herbicide test; conditions: pre-emergence (sprayed after one day cultivation), 1000 g/h, evaluated after 13 days, five point scale
Method: as §1

Solanum nigrum (SOLNI) [12] = test: Pre-emergence glasshouse herbicide test; conditions: pre-emergence (sprayed after one day cultivation), 1000 g/h, evaluated after 13 days, five point scale
Method: as §1

Structure (SMILES)	percentage damage caused to the plant, POST Application ALOMY [1]	percentage damage caused to the plant, POST Application AMARE [2]	percentage damage caused to the plant, POST Application ECHCG [3]	percentage damage caused to the plant, POST Application IPOHE [4]	percentage damage caused to the plant, POST Application SETFA (Setaria faberi (SETFA) [5])	percentage damage caused to the plant, POST Application SOLNI (Solanum nigrum (SOLNI) [6])	percentage damage caused to the plant, PRE Application ALOMY [7]	percentage damage caused to the plant, PRE Application AMARE [8]	percentage damage caused to the plant, PRE Application ECHCG [9]	percentage damage caused to the plant, PRE Application IPOHE [10]	percentage damage caused to the plant, PRE Application SETFA (Setaria faberi (SETFA) [11])	percentage damage caused to the plant, PRE Application SOLNI (Solanum nigrum (SOLNI) [12])
Cc1c(-n2ncc(Br)c(O)c2=O)ccc(S(C)(=O)=O)c1C1=NOCC1 [Compound 1.013]	5 (5=80-100%)	5 (5=80-100%)	5 (5=80-100%)	5 (5=80-100%)	5 (5=80-100%)	5 (5=80-100%)	4 (4=60-79%)	5 (5=80-100%)	5 (5=80-100%)	4 (4=60-79%)	5 (5=80-100%)	5 (5=80-100%)
C[S+]([O-])c1cnn(-c2ccc(C(F)(F)F)cc2S(C)(=O)=O)c(=O)c1O (stereo not drawn) [Compound 1.041]	1 (1=0-19%)	5 (5=80-100%)	4 (4=60-79%)	4 (4=60-79%)	2 (2=20-39%)	5 (5=80-100%)	1 (1=0-19%)	5 (5=80-100%)	4 (4=60-79%)	4 (4=60-79%)	2 (2=20-39%)	5 (5=80-100%)
Cc1c(-n2ncc(S(C)(=O)=O)c(O)c2=O)ccc(S(C)(=O)=O)c1C1=NOCC1 [Compound 1.011, 2-[3-(4,5-dihydroisoxazol-3-yl)-2-methyl-4-methylsulfonyl-phenyl]-4-hydroxy-5-methylsulfonyl-pyridazin-3-one]	5 (5=80-100%)	5 (5=80-100%)	5 (5=80-100%)	5 (5=80-100%)	5 (5=80-100%)	5 (5=80-100%)	5 (5=80-100%)	5 (5=80-100%)	5 (5=80-100%)	5 (5=80-100%)	5 (5=80-100%)	5 (5=80-100%)
C=C(C)c1cnn(-c2ccc(S(C)(=O)=O)c(C3=NOCC3)c2C)c(=O)c1O [Compound 1.007]	5 (5=80-100%)	5 (5=80-100%)	5 (5=80-100%)	5 (5=80-100%)	5 (5=80-100%)	5 (5=80-100%)	3 (3=40-59%)	5 (5=80-100%)	5 (5=80-100%)	5 (5=80-100%)	3 (3=40-59%)	4 (4=60-79%)
C=Cc1cnn(-c2ccc(C(F)(F)F)nc2C)c(=O)c1O [Compound 1.021]	3 (3=40-59%)	5 (5=80-100%)	5 (5=80-100%)	5 (5=80-100%)	5 (5=80-100%)	5 (5=80-100%)	3 (3=40-59%)	5 (5=80-100%)	5 (5=80-100%)	5 (5=80-100%)	5 (5=80-100%)	5 (5=80-100%)
COc1cnn(-c2ccc(C(F)(F)F)cc2C(F)(F)F)c(=O)c1O [Compound 1.014]	1 (1=0-19%)	5 (5=80-100%)	1 (1=0-19%)	3 (3=40-59%)	4 (4=60-79%)	5 (5=80-100%)	1 (1=0-19%)	1 (1=0-19%)	1 (1=0-19%)	1 (1=0-19%)	1 (1=0-19%)	1 (1=0-19%)
Cc1c(-n2ncc(C(C)C)c(O)c2=O)ccc(S(C)(=O)=O)c1C1=NOCC1 [Compound 1.010]	5 (5=80-100%)	5 (5=80-100%)	5 (5=80-100%)	5 (5=80-100%)	5 (5=80-100%)	5 (5=80-100%)	3 (3=40-59%)	5 (5=80-100%)	3 (3=40-59%)	1 (1=0-19%)	2 (2=20-39%)	1 (1=0-19%)
Cc1cnn(-c2ccc(S(C)(=O)=O)c(C3=NOCC3)c2C)c(=O)c1O [Compound 1.016, 2-[3-(4,5-dihydroisoxazol-3-yl)-2-methyl-4-methylsulfonyl-phenyl]-4-hydroxy-5-methyl-pyridazin-3-one]	5 (5=80-100%)	5 (5=80-100%)	5 (5=80-100%)	5 (5=80-100%)	5 (5=80-100%)	5 (5=80-100%)	5 (5=80-100%)	5 (5=80-100%)	5 (5=80-100%)	4 (4=60-79%)	5 (5=80-100%)	5 (5=80-100%)
Cc1nc(C(F)(F)F)ccc1-n1ncc(Br)c(O)c1=O [Compound 1.023]	3 (3=40-59%)	5 (5=80-100%)	5 (5=80-100%)	5 (5=80-100%)	5 (5=80-100%)	5 (5=80-100%)	3 (3=40-59%)	5 (5=80-100%)	5 (5=80-100%)	5 (5=80-100%)	5 (5=80-100%)	5 (5=80-100%)
Cc1c(-n2ncc(Cl)c(O)c2=O)ccc(S(C)(=O)=O)c1C1=NOCC1 [Compound 1.004]	5 (5=80-100%)	5 (5=80-100%)	5 (5=80-100%)	5 (5=80-100%)	5 (5=80-100%)	5 (5=80-100%)	5 (5=80-100%)	5 (5=80-100%)	5 (5=80-100%)	5 (5=80-100%)	5 (5=80-100%)	5 (5=80-100%)
